The record followed here is patent US7279476B2, “Pyrazole-derived kinase inhibitors and uses thereof” (Vertex Pharmaceuticals Incorporated, priority 2001, dated 2007).

For one assay, the target named is activated ERK2 (Homo sapiens, UniProt P28482). As to the kind of experiment: ERK2 inhibition spectrophotometric coupled-enzyme assay. The assay is classed as biochemical. To be noted: 10 nM activated ERK2, 65 μM ATP, 30° C., pH 7.5; read-out: ERK2 Inhibitory Activity (Ki class). How it is done: Compounds are assayed for the inhibition of ERK2 by a spectrophotometric coupled-enzyme assay (Fox et al (1998) Protein Sci 7, 2249). In this assay, a fixed concentration of activated ERK2 (10 nM) is incubated with various concentrations of the compound in DMSO (2.5%) for 10 min. at 30° C. in 0.1 M HEPES buffer, pH 7.5, containing 10 mM MgCl2, 2.5 mM phosphoenolpyruvate, 200 μM NADH, 150 μg/mL pyruvate kinase, 50 μg/mL lactate dehydrogenase, and 200 μM erktide peptide. The reaction is initiated by the addition of 65 μM ATP. The rate of decrease of absorbance at 340 nm is monitored, which indicates the extent of uninhibited enzyme present in the assay. The IC50 is evaluated from the rate data as a function of inhibitor concentration.
The compound numbers correspond to the compound numbers in Tables 1 and 2.

The test system of assay [1] is Colon cancer cells (HT-29 cell line). As to the kind of experiment: ERK inhibition cell proliferation assay (3H-thymidine uptake). The assay is classed as cell-based. To be noted: Homo sapiens, HT-29 cells, 3 days incubation. How it is done:
Compounds may be assayed for the inhibition of ERK2 by a cell proliferation assay. In this assay, a complete media is prepared by adding 10% fetal bovine serum and penicillin/streptomycin solution to RPMI 1640 medium (JRH Biosciences). Colon cancer cells (HT-29 cell line) are added to each of 84 wells of a 96 well plate at a seeding density of 10,000 cells/well/150 μL. The cells are allowed to attach to the plate by incubating at 37° C. for 2 hours. A solution of test compound is prepared in complete media by serial dilution to obtain the following concentrations: 20 μM, 6.7 μM, 2.2 μM, 0.74 μM, 0.25 μM, and 0.08 μM. The test compound solution (50 μL) is added to each of 72 cell-containing wells. To the 12 remaining cell-containing wells, only complete media (200 μL) is added to form a control group in order to measure maximal proliferation. To the remaining 12 empty wells, complete media is added to form a vehicle control group in order to measure background. The plates are incubated at 37° C. for 3 days. A stock solution of ^3H-thymidine (1 mCi/mL, New England Nuclear, Boston, Mass.) is diluted to 20 μCi/mL in RPMI medium then 20 μL of this solution is added to each well. The plates are further incubated at 37° C. for 8 hours then harvested and analyzed for ^3H-thymidine uptake using a liquid scintillation counter.

The subject of a further assay is AKT. As to the kind of experiment: AKT inhibition standard coupled enzyme assay. The assay is classed as biochemical. As to conditions: screened at 30 μM compound, 45 nM AKT, 170 μM ATP; compounds with greater than 50% inhibition titrated. How it is done: Compounds were screened for their ability to inhibit AKT using a standard coupled enzyme assay (Fox et al., Protein Sci., (1998) 7, 2249). Assays were carried out in a mixture of 100 mM HEPES 7.5, 10 mM MgCl2, 25 mM NaCl, 1 mM DTT and 1.5% DMSO. Final substrate concentrations in the assay were 170 μM ATP (Sigma Chemicals) and 200 μM peptide (RPRAATF, American Peptide, Sunnyvale, Calif.). Assays were carried out at 30° C. and 45 nM AKT. Final concentrations of the components of the coupled enzyme system were 2.5 mM phosphoenolpyruvate, 300 μM NADH, 30 μg/ML pyruvate kinase and 10 μg/ml lactate dehydrogenase.
An assay stock buffer solution was prepared containing all of the reagents listed above, with the exception of AKT, DTT, and the test compound of interest. 56 μl of the stock solution was placed in a 384 well plate followed by addition of 1 μl of 2 mM DMSO stock containing the test compound (final compound concentration 30 μM). The plate was preincubated for about 10 minutes at 30° C. and the reaction initiated by addition of 10 μl of enzyme (final concentration 45 nM) and 1 mM DTT. Rates of reaction were obtained using a BioRad Ultramark plate reader (Hercules, Calif.) over a 5 minute read time at 30° C.

The term Ki denotes the dissociation constant of the complex between target and ligand, obtained from inhibition or displacement. As usually defined, the IC50 is the concentration at which inhibition is half-maximal. A high value points to weaker potency in that assay.

The structures appear in SMILES notation.

Sequence of activated ERK2 (P28482 whole entry): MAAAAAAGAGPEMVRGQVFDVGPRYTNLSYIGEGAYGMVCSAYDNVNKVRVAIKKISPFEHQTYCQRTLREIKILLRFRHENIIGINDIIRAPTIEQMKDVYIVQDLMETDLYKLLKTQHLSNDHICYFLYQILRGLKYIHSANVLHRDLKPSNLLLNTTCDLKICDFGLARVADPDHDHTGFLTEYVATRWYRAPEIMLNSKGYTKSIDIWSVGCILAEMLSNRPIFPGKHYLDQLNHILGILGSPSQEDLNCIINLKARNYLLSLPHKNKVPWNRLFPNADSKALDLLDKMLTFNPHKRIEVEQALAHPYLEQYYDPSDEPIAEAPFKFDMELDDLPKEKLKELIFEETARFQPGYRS

In the case of `CC(=O)N1C[C@H](O)C[C@H]1C(=O)NCc1ccc(-c2c[nH]nc2-c2c[nH]c(C(=O)N[C@H](CO)c3ccc(F)c(Cl)c3)c2)cc1Cl` (stereo in doubt) [II-2, 4-[4-(4-{[(1-Acetyl-4-hydroxy-pyrrolidine-2-carbonyl)-amino]-methyl}-3-chloro-phenyl)-1H-pyrazol-3-yl]-1H-pyrrole-2-carboxylic acid [1-(3-chloro-4-fluoro-phenyl)-2-hydroxy-ethyl]-amide], the Ki on activated ERK2 was below 1000 nM.

In turn, `O=C(N[C@H](CO)c1ccccc1)c1cc(-c2[nH]ncc2-c2ccc(C(=O)N3CCOCC3)c(Cl)c2)c[nH]1` [II-1] displayed an IC50 in assay [1] below 10000 nM. Also, on activated ERK2, the Ki was below 1000 nM.

As to `CC(=O)N1CCC[C@H]1C(=O)NCc1ccc(-c2cn[nH]c2-c2c[nH]c(C(=O)NC(CO)c3ccc(F)c(Cl)c3)c2)cc1Cl` (some centres unmarked) [II-3], at activated ERK2, the Ki was below 1000 nM.

With `CC(=O)N1CCC[C@@H]1C(=O)NCc1ccc(-c2cn[nH]c2-c2c[nH]c(C(=O)NC(CO)c3ccc(F)c(Cl)c3)c2)cc1Cl` (some centres unmarked) [II-4], the Ki on activated ERK2 was below 1000 nM.

With `O=C(CCCCCNc1ccc([N+](=O)[O-])c2nonc12)NCc1ccc(-c2cn[nH]c2-c2c[nH]c(C(=O)N[C@H](CO)c3ccc(F)c(Cl)c3)c2)cc1Cl` [II-5], the Ki at activated ERK2 was below 1000 nM.

In assay [1], `O=C(N[C@H](CO)c1ccc(F)c(Cl)c1)c1cc(-c2n[nH]cc2-c2ccc(CN3CCOCC3)c(Cl)c2)c[nH]1` [II-6, 4-[4-(3-Chloro-4-morpholin-4-ylmethyl-phenyl)-1H-pyrazol-3-yl]-1H-pyrrole-2-carboxylic acid [1-(3-chloro-4-fluoro-phenyl)-2-hydroxy-ethyl]-amide] gave an IC50 below 10000 nM. Also, the “inhibit AKT” value with AKT was “inhibit AKT”. Also, the Ki on activated ERK2 is below 1000 nM.

On to `O=C(NCc1ccc(-c2cn[nH]c2-c2c[nH]c(C(=O)N[C@H](CO)c3ccc(F)c(Cl)c3)c2)cc1Cl)O[C@H]1CCOC1` [II-7], for which the Ki at activated ERK2 is below 1000 nM.

Consider `O=C(N[C@H](CO)c1ccc(F)c(Cl)c1)c1cc(-c2n[nH]cc2-c2ccc(CNCc3cc[n+]([O-])cc3)c(Cl)c2)c[nH]1` [II-8], for which the “inhibit AKT” value with AKT is on record as “inhibit AKT”. Besides, on activated ERK2, the Ki was below 1000 nM.

On to `O=C(N[C@H](CO)c1ccc(F)c(Cl)c1)c1cc(-c2n[nH]cc2-c2ccc(CN(Cc3cc[n+]([O-])cc3)Cc3cc[n+](O)cc3)c(Cl)c2)c[nH]1` [II-9, 4-[4-(4-{[Bis-(1-oxy-pyridin-4-ylmethyl)-amino]-methyl}-3-chloro-phenyl)-1H-pyrazol-3-yl]-1H-pyrrole-2-carboxylic acid [1-(3-chloro-4-fluoro-phenyl)-2-hydroxy-ethyl]-amide], for which, at activated ERK2, the Ki is below 1000 nM.

On to `O=C(NCc1ccccc1)c1cc(-c2[nH]ncc2-c2cccc(CN3CCOCC3)c2)c[nH]1` [II-10], for which the Ki on activated ERK2 is above 5000 nM.
